Measured values reported in patent US7705034B2, “Vinylogous acid derivatives” (Hoffmann-La Roche Inc., priority 2006, dated 2010).

These molecules were tested against T1, Chymase purified form human skin mast cells (Homo sapiens, UniProt P23946) (assay: chymase peptide substrate assay (AAPF-AMC fluorescence)). Settings: 1 nM chymase, 0.02 mM AAPF-substrate, pH 7.4, room temperature, 30 min pre-incubation.
T1 construct: Chymase purified form human skin mast cells was obtained from Calbiochem; purchased Calbiochem (Merck Biosciences, San Diego, Calif., USA); host or cells: human skin mast cells (natural source)
T1 sequence (P23946 22-247): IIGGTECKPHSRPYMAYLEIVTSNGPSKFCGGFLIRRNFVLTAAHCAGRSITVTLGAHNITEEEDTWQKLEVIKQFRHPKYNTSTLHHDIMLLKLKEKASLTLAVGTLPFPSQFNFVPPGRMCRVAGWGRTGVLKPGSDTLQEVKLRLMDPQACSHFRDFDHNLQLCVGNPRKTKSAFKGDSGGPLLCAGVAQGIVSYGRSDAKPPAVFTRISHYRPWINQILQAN
Format: biochemical
Experimental: The peptide was synthesized with a purity of 95% from Bachem, Bubendorf, Switzerland). Chymase purified form human skin mast cells was obtained from Calbiochem (Merck Biosciences, San Diego, Calif., USA). The assay buffer was 0.15 M NaCl, 0.05M, Tris HCl, 0.05% CHAPS (3-[(3-Cholamidopropyl)-dimethylammonio]-1-propane sulphonate), 0.1 mg/ml Heparin (Heparin sodium, Sigma, porcine intestinal mucosa), 0.02 mM AAPF-substrate, 1 nM Chymase at pH 7.4. The assay was performed in 96-well plates (Packard Optiplate), with a 0.05 ml volume at room temperature. Chymase activity was indicated by the initial rate of increase in fluorescence at 340/440 nm (excitation/emission) from free 7-amino-4-methylcoumarin released from the substrate. Inhibition of the activity by inhibitory compounds was read after 30 min pre-incubation with the chymase at room temperature in assay buffer without AAPF-substrate. The assay was then started by addition of the indicated concentration of AAPF-substrate.

Row | IC50 | SMILES
1 | 27 nM | CC(=O)NC(C)(C)Cc1c(C(C2=C(O)C(C)(c3ccccc3)C2=O)c2ccccc2)[nH]c2cc(C)ccc12 (stereo not shown) [Example 3, N-(2-{2-[(2-Hydroxy-3-methyl-4-oxo-3-phenyl-cyclobut-1-enyl)-phenyl-methyl]-6-methyl-1H-indol-3-yl}-1,1-dimethyl-ethyl)-acetamide]
2 | 34 nM | Cc1c(C(C2=C(O)C(C)(c3ccccc3)C2=O)c2ccccc2)[nH]c2ccccc12 (stereo not shown) [Example 6, 3-Hydroxy-4-methyl-2-[(3-methyl-1H-indol-2-yl)-phenyl-methyl]-4-phenyl-cyclobut-2-enone]
3 | 25 nM | CC(=O)NCc1c(C(C2=C(O)C(C)(c3ccccc3)C2=O)c2ccccc2)[nH]c2cc(C)ccc12 (stereo not shown) [Example 10, N-{2-[(2-Hydroxy-3-methyl-4-oxo-3-phenyl-cyclobut-1-enyl)-phenyl-methyl]-6-methyl-1H-indol-3-ylmethyl}-acetamide]
4 | 8 nM | Cc1ccc(C2(C)C(=O)C(C(c3ccccc3)c3[nH]c4cc(C)ccc4c3C)=C2O)cc1 (stereo not shown) [Example 13, 2-[(3,6-Dimethyl-1H-indol-2-yl)-phenyl-methyl]-3-hydroxy-4-methyl-4-p-tolyl-cyclobut-2-enone]
